For orientation: IC50 means the midpoint of a concentration-inhibition curve. The term IC90 denotes the concentration at which the effect reaches the 90% level.

For one data set, the system named is Trypanosoma brucei. Put plainly: Trypanocidal activity against bloodstream form of Trypanosoma brucei 427 assessed as reduction in parasitic growth after 48 hrs by Alamar blue assay. Format: functional, organism-based. Particulars: Trypanosoma brucei, 427, 48 h. On the technique in general: The colour change of resazurin is a common sign of viable cells or microbes.

The nature of data set [1]: Selectivity index, ratio of IC50 for rat L6 cells to IC50 for bloodstream form of Trypanosoma brucei 427. Format: toxicity, cell-based. Particulars: read-out: Ratio IC50.
A short description of data set [2]: Selectivity index, ratio of IC50 for rat L6 cells to IC50 for epimastigote form of Trypanosoma cruzi CL Brener. Format: toxicity, cell-based. Particulars: read-out: Ratio IC50.
Another data set relates to Trypanosoma cruzi. Nature of the data set: Trypanocidal activity against epimastigote form of Trypanosoma cruzi CL Brener assessed as reduction in parasitic growth after 4 days by Alamar blue assay. Format: functional. Particulars: 96 h.
Another data set deals with L6. Nature of the data set: Cytotoxicity against rat L6 cells after 6 days by Alamar blue assay. Format: cell-based.
[3] abbreviates: Rattus norvegicus, L6, 144 h, read-out: IC50.

On to `O=C(CC12CC3CC(CC(C3)C1)C2)N/N=C/c1ccc([N+](=O)[O-])o1`, for which the 50% inhibitory concentration (IC50) with Trypanosoma brucei amounted to 242 nM; in the data set on Trypanosoma cruzi, 205 nM; in the data set with L6 (setting [3]), 3170 nM. The figures for the concentration for an effect of 90% (IC90) in the data set with Trypanosoma brucei and in the data set with Trypanosoma cruzi were 553 nM and 568 nM, respectively. The selectivity ratio was 13 in data set [1] and 15 in data set [2].
`O=C(N/N=C/c1ccco1)C12CC3CC(CC(C3)C1)C2`: the half-inhibitory concentration (IC50) with Trypanosoma brucei, in the data set on Trypanosoma cruzi and in the data set with L6 (setting [3]) was over 35000 nM throughout. For the same molecule, the IC90 in the data set with Trypanosoma brucei and with Trypanosoma cruzi was over 35000 nM in each case.
As to `O=C(N/N=C/c1ccc([N+](=O)[O-])o1)C1C2CC3CC(C2)CC1C3` (stereo unspecified), the IC50 in the data set on Trypanosoma brucei was 231 nM; in the data set on Trypanosoma cruzi, 844 nM; in the data set with L6 (setting [3]), 19200 nM. The IC90 is 599 nM in the data set on Trypanosoma brucei and 1960 nM with Trypanosoma cruzi. Besides, the selectivity ratio stood at 83 in data set [1] and 23 in data set [2].
With `O=C(CCC12CC3CC(C1)CC(c1ccccc1)(C3)C2)N/N=C/c1ccc([N+](=O)[O-])o1`, the IC50 in the data set on Trypanosoma brucei worked out at 90 nM; with Trypanosoma cruzi, 238 nM; in the data set with L6 (setting [3]) it was 4590 nM. Moreover, the IC90 stood at 167 nM in the data set with Trypanosoma brucei and 654 nM in the data set with Trypanosoma cruzi. Further, the results for the selectivity ratio in data set [1] and in data set [2] were 51 and 17, respectively.
As for `O=C(CC12CC3CC(CC(C3)C1)C2)N/N=C/c1ccco1`, the 50% inhibitory concentration (IC50) in the data set with Trypanosoma brucei, in the data set on Trypanosoma cruzi and in the data set with L6 (setting [3]) was over 35000 nM throughout. The concentration for an effect of 90% (IC90) in the data set with Trypanosoma brucei and in the data set on Trypanosoma cruzi was over 35000 nM in each case.
Turning to `O=C(CCC12CC3CC(C1)CC(C1CCCC1)(C3)C2)N/N=C/c1ccc([N+](=O)[O-])o1`, the half-maximal inhibitory concentration (IC50) in the data set on Trypanosoma brucei came out at 158 nM; with Trypanosoma cruzi it was 140 nM; in the data set on L6 (setting [3]), 4600 nM. Moreover, the 90% effect concentration (IC90) with Trypanosoma brucei turned out to be 322 nM; in the data set with Trypanosoma cruzi it was 803 nM. In addition, the values for the selectivity ratio in data set [1] and in data set [2] were 29 and 33, respectively.
With `O=C(CCC12CC3CC(CC(C3)C1)C2)N/N=C/c1ccco1`, the IC50 is over 30000 nM in the data set on Trypanosoma brucei, 6090 nM with Trypanosoma cruzi and over 30000 nM in the data set on L6 (setting [3]). In addition, the 90% effect concentration (IC90) in the data set with Trypanosoma brucei was over 30000 nM; with Trypanosoma cruzi it was 15700 nM.
`O=C(N/N=C/c1ccc([N+](=O)[O-])o1)C12CC3CC(CC(C3)C1)C2`: the half-inhibitory concentration (IC50) in the data set with Trypanosoma brucei is 851 nM; with Trypanosoma cruzi, 561 nM; with L6 (setting [3]), 7720 nM. Besides, the figures for the concentration for an effect of 90% (IC90) with Trypanosoma brucei and with Trypanosoma cruzi were 1040 nM and 992 nM, respectively. In addition, the selectivity ratio in data set [1] stood at 9; in data set [2], 14.
`O=C(N/N=C/c1ccc([N+](=O)[O-])o1)C12CC3CC(C1)CC(C1CCCC1)(C3)C2`: the results for the IC50 in the data set on Trypanosoma brucei, with Trypanosoma cruzi and in the data set with L6 (setting [3]) were 216 nM, 225 nM and 11000 nM, respectively. Also, the concentration for an effect of 90% (IC90) in the data set with Trypanosoma brucei worked out at 425 nM; with Trypanosoma cruzi, 528 nM. The selectivity ratio in data set [1] was determined as 51; in data set [2] it was 49.
As to `O=C(CCC1C2CC3CC(C2)CC1C3)N/N=C/c1ccc([N+](=O)[O-])o1` (stereo unspecified), the values for the IC50 in the data set on Trypanosoma brucei, with Trypanosoma cruzi and with L6 (setting [3]) were 122 nM, 206 nM and 2380 nM, respectively. The values for the 90% effect concentration (IC90) in the data set on Trypanosoma brucei and in the data set with Trypanosoma cruzi were 177 nM and 513 nM, respectively. Further, the selectivity ratio was determined as 20 in data set [1] and 12 in data set [2].
As for `O=C(CC12CC3CC(C1)CC(C1CCCC1)(C3)C2)N/N=C/c1ccc([N+](=O)[O-])o1`, the 50% inhibitory concentration (IC50) with Trypanosoma brucei turned out to be 306 nM; with Trypanosoma cruzi it was 178 nM; in the data set on L6 (setting [3]) it was 8790 nM. Further, the IC90 in the data set on Trypanosoma brucei amounted to 459 nM; in the data set on Trypanosoma cruzi, 329 nM. For the same molecule, the selectivity ratio was 29 in data set [1] and 49 in data set [2].
Regarding `CCOC(=O)CC12CC3CC(CC(CC(=O)N/N=C/c4ccc([N+](=O)[O-])o4)(C3)C1)C2`, the IC50 worked out at 223 nM in the data set with Trypanosoma brucei, 204 nM with Trypanosoma cruzi and 7490 nM with L6 (setting [3]). Moreover, the values for the IC90 in the data set on Trypanosoma brucei and with Trypanosoma cruzi were 643 nM and 478 nM, respectively. In addition, the figures for the selectivity ratio in data set [1] and in data set [2] were 34 and 32, respectively.
Consider `O=C(CC1C2CC3CC(C2)CC1C3)N/N=C/c1ccc([N+](=O)[O-])o1` (stereo unspecified), for which the half-maximal inhibitory concentration (IC50) was determined as 126 nM with Trypanosoma brucei, 202 nM in the data set on Trypanosoma cruzi and 3260 nM in the data set on L6 (setting [3]). Also, the IC90 is 207 nM in the data set on Trypanosoma brucei and 381 nM in the data set on Trypanosoma cruzi. Besides, the results for the selectivity ratio in data set [1] and in data set [2] were 26 and 16, respectively.
On to `O=C(CCC12CC3CC(CC(C3)C1)C2)N/N=C/c1ccc([N+](=O)[O-])o1`, for which the concentration for half-maximal inhibition (IC50) was determined as 386 nM with Trypanosoma brucei, 348 nM in the data set on Trypanosoma cruzi and 16000 nM in the data set on L6 (setting [3]). Moreover, the concentration for an effect of 90% (IC90) with Trypanosoma brucei was 560 nM; in the data set on Trypanosoma cruzi, 719 nM. Besides, the selectivity ratio in data set [1] was determined as 41; in data set [2], 56.
For `O=C(CC12CC3CC(C1)CC(c1ccccc1)(C3)C2)N/N=C/c1ccc([N+](=O)[O-])o1`, the figures for the 50% inhibitory concentration (IC50) in the data set on Trypanosoma brucei, with Trypanosoma cruzi and in the data set on L6 (setting [3]) were 221 nM, 91 nM and 5020 nM, respectively. In addition, the figures for the IC90 in the data set on Trypanosoma brucei and in the data set with Trypanosoma cruzi were 573 nM and 180 nM, respectively. For the same molecule, the selectivity ratio worked out at 23 in data set [1] and 55 in data set [2].
Take `O=C(N/N=C/c1ccc([N+](=O)[O-])o1)C12CC3CC(C1)CC(c1ccccc1)(C3)C2`: the 50% inhibitory concentration (IC50) in the data set on Trypanosoma brucei was determined as 244 nM; in the data set with Trypanosoma cruzi, 368 nM; in the data set with L6 (setting [3]), 11400 nM. Also, the results for the 90% effect concentration (IC90) in the data set on Trypanosoma brucei and in the data set with Trypanosoma cruzi were 406 nM and 676 nM, respectively. Moreover, the values for the selectivity ratio in data set [1] and in data set [2] were 47 and 31, respectively.
As for `O=C(N/N=C/c1ccc([N+](=O)[O-])o1)C12CC3CC(C1)CC(C(=O)N/N=C/c1ccc([N+](=O)[O-])o1)(C3)C2`, the half-inhibitory concentration (IC50) with Trypanosoma brucei was 75 nM; with Trypanosoma cruzi, over 2000 nM; in the data set on L6 (l6), “ND(Insoluble)”. The figures for the 90% effect concentration (IC90) with Trypanosoma brucei and in the data set with Trypanosoma cruzi were 98 nM and over 2000 nM, respectively.

The record behind these values is ChEMBL document CHEMBL3817750, “New hydrazones of 5-nitro-2-furaldehyde with adamantanealkanohydrazides: synthesis and in vitro trypanocidal activity” (Medchemcomm, 2016).
